In US9169252B2 (BRISTOL-MYERS SQUIBB COMPANY, priority 2014, dated 2015) one finds EC50 and IC50 data, which are given here for 38 compounds.

The structures appear in SMILES notation. Read-outs that look alike come from different tables or passages of the source.

This assay has as its system TLR2 induced IL-6 in peripheral blood mononuclear cells (PBMCs). Description: PBMC TLR2 Induced IL-6 Assay. The class given is cell-based, human. To be noted: IL-6 by ELISA; for EC50: read-out: Cell EC50; for IC50: read-out: Cell IC50. As to the method:
PBMC TLR2 Induced IL-6 Assay
Peripheral blood mononuclear cells (PBMCs) were isolated from human blood containing the anti-coagulant EDTA (2.5 mM) by centrifugation over a FICOLL® gradient. PBMCs (250000 cells/well) were cultured in assay media (RPMI with 10% heat inactivated FCS) with compounds for 30 minutes at 37° C. in a 5% CO2 incubator. Following pretreatment with compounds, cells were stimulated for 5 hours with 10 µg/ml lipoteichoic acid (Invivogen, San Diego, Calif.), a TLR2 agonist. At the end of the culture, plates were centrifuged at 1800 rpm for 10 minutes to pellet the cells.
On the technique in general: In an ELISA, binding on a coated surface is turned into a signal by an enzyme label.

Where [1] appears, read: human PBMCs, lipoteichoic acid stimulated.
The mark [2] stands for this setting: Homo sapiens, PBMC, PBMC TLR2 Induced IL-6 Assay, lipoteichoic acid stimulation.
Where [3] appears, read: PBMC TLR2 Induced IL-6 Assay, lipoteichoic acid stimulation.
The mark [4] stands for this setting: Homo sapiens, PBMC, human PBMCs, lipoteichoic acid stimulated.

Take `CC(C)(O)[C@H](F)CNC(=O)c1cnc(-n2ncc3cc(F)cnc32)cc1NC1CCC(O)C1` (mixture of isomers) [Example 611]: under setting [1], the EC50 (as a rule, the concentration needed to bring the measured effect to its halfway point) was determined as 0.536 µM and the IC50 (commonly the concentration that inhibits the measured activity by half) is 1.85 µM. `CC(C)(O)[C@H](F)CNC(=O)c1cnc(-n2ccc3cc(C#N)cnc32)cc1NC1CCCOC1` (single isomer, unassigned) [Example 7]: under setting [2], the EC50 stood at 0.477 µM and the IC50 came out at 0.477 µM.

Regarding `CC(C)(O)[C@H](F)CNC(=O)c1cnc(-n2ccc3cc(C#N)cnc32)cc1NC1CCCOC1` (single isomer, unassigned) [Example 8], under setting [3], the EC50 came out at 0.695 µM and the IC50 was found to be 0.695 µM. With `CC(C)(O)[C@H](F)CNC(=O)c1cnc(-n2ccc3cc(C#N)cnc32)cc1NC1CCC(O)C1` (single isomer, unassigned) [Example 24], the EC50 under setting [3] turned out to be 0.03 µM.

Consider `CC(C)(O)[C@H](F)CNC(=O)c1cnc(-n2ccc3cc(C#N)cnc32)cc1NC1CCC(O)C1` (single isomer, unassigned) [Example 25], for which the EC50 under setting [3] was found to be 0.022 µM.

Consider `CC(C)(O)[C@H](F)CNC(=O)c1cnc(-n2ccc3cc(C#N)cnc32)cc1NC1CCC(O)C1` (single isomer, unassigned) [Example 26], for which the EC50 under setting [3] worked out at 0.168 µM.

As for `CC(C)(O)[C@H](F)CNC(=O)c1cnc(-n2ccc3cc(C#N)cnc32)cc1NC1CCC(O)C1` (single isomer, unassigned) [Example 27], the EC50 under setting [3] turned out to be 0.044 µM.

`CC(C)Nc1cc(-n2ccc3cc(C#N)cnc32)ncc1C(=O)NC[C@@H](F)C(C)O` (single isomer, unassigned) [Example 48]: the EC50 under setting [3] is 0.024 µM.

As for `CC(C)Nc1cc(-n2ccc3cc(C#N)cnc32)ncc1C(=O)NC[C@@H](F)C(C)O` (single isomer, unassigned) [Example 49], under setting [3], the EC50 came to 0.071 µM. Turning to `CC(C)(O)[C@H](F)CNC(=O)c1cnc(-n2ccc3cc(C#N)cnc32)cc1N[C@@H]1COC[C@H]1F` (single isomer, unassigned) [Example 458], the IC50 under setting [4] turned out to be 0.26 µM. Under setting [1], the EC50 stood at 0.261 µM.

For the compound `CC(C)(O)[C@H](F)CNC(=O)c1cnc(-n2ccc3cc(C#N)cnc32)cc1N[C@@H]1COC[C@H]1F` (single isomer, unassigned) [Example 459], under setting [1], the EC50 was 0.095 µM and the IC50 worked out at 0.343 µM.

Consider `CC(O)CCNc1cc(-n2ncc3cc(C#N)cnc32)ncc1C(=O)NC[C@@H](F)C(C)(C)O` (single isomer, unassigned) [Example 572], for which, under setting [4], the IC50 amounted to 0.303 µM. For `CC(O)CCNc1cc(-n2ncc3cc(C#N)cnc32)ncc1C(=O)NC[C@@H](F)C(C)(C)O` (single isomer, unassigned) [Example 573], the EC50 under setting [4] was determined as 0.729 µM. Besides, the IC50 under setting [1] worked out at 0.27 µM. As for `CC(C)(O)[C@H](F)CNC(=O)c1cnc(-n2ncc3cc(F)cnc32)cc1NC1CCC(O)C1` (single isomer, unassigned) [Example 609], under setting [1], the EC50 amounted to 0.485 µM and the IC50 stood at 1.44 µM. The matching figures for `CC(C)(O)[C@H](F)CNC(=O)c1cnc(-n2ncc3cc(F)cnc32)cc1NC1CCC(O)C1` (single isomer, unassigned) [Example 610]: 0.166 µM and 0.217 µM. Consider `CC(C)(O)[C@H](F)CNC(=O)c1cnc(-n2ncc3cc(Cl)cnc32)cc1N[C@@H]1C[C@H]1CO` (single isomer, unassigned) [Example 645], for which, under setting [1], the IC50 is 0.154 µM.

In the case of `CC(C)(O)[C@H](F)CNC(=O)c1cnc(-n2ncc3cc(Cl)cnc32)cc1N[C@@H]1C[C@H]1CO` (single isomer, unassigned) [Example 646], the IC50 under setting [1] worked out at 0.393 µM. For the compound `COc1cccc(Nc2cc(-n3ccc4cc(C#N)cnc43)ncc2C(=O)NC[C@@H](F)C(C)(C)O)c1` [Example 51, (R)-6-(5-cyano-1H-pyrrolo[2,3-b]pyridin-1-yl)-N-(2-fluoro-3-hydroxy-3-methylbutyl)-4-((3-methoxyphenyl)amino)nicotinamide], the EC50 under setting [2] came out at 0.065 µM. As to `CC(C)Nc1cc(-n2ccc3cc(Cl)cnc32)ncc1C(=O)NC[C@@H](F)C(C)(C)O` [Example 76, (R)-6-(5-chloro-1H-pyrrolo[2,3-b]pyridin-1-yl)-N-(2-fluoro-3-hydroxy-3-methylbutyl)-4-(isopropylamino) nicotinamide], the IC50 under setting [2] turned out to be 0.395 µM. With `CNC(=O)[C@H]1CC[C@H](NC(=O)c2cnc(-n3ccc4cc(C#N)cnc43)cc2NC2CCOCC2)CC1` [Example 86, 6-(5-cyano-1H-pyrrolo[2,3-b]pyridin-1-yl)-N-((trans)-4-(methylcarbamoyl)cyclohexyl)-4-((tetrahydro-2H-pyran-4-yl)amino)nicotinamide], the EC50 under setting [2] is 0.11 µM.

As for `CC(C)Nc1cc(-n2ccc3cc(C#N)cnc32)ncc1C(=O)N[C@H]1CC[C@H]([N+](=O)[O-])CC1` [Example 95, 6-(5-cyano-1H-pyrrolo[2,3-b]pyridin-1-yl)-4-(isopropylamino)-N-((trans)-4-nitrocyclohexyl)nicotinamide], under setting [2], the EC50 came to 0.408 µM.

For `CC(C)(O)[C@H](F)CNC(=O)c1cnc(-n2ccc3cc(C#N)cnc32)cc1NC1CCCC(F)(F)C1O` (stereo partly drawn) [Example 111, 6-(5-cyano-1H-pyrrolo[2,3-b]pyridin-1-yl)-4-((3,3-difluoro-2-hydroxycyclohexyl)amino)-N—((R)-2-fluoro-3-hydroxy-3-methylbutyl) nicotinamide], under setting [2], the EC50 was 0.238 µM. Regarding `CC(C)(O)[C@H](F)CNC(=O)c1cnc(-n2ncc3cncnc32)cc1NC1CC1` [Example 134, (R)-4-(cyclopropylamino)-N-(2-fluoro-3-hydroxy-3-methylbutyl)-6-(1H-pyrazolo[3,4-d]pyrimidin-1-yl)nicotinamide], the EC50 under setting [2] turned out to be 0.282 µM. Same read-out and setting: the value for `CC(C)(O)[C@H](F)CNC(=O)c1cnc(-n2ncc3cc(Cl)cnc32)cc1NC1CCOCC1` [Example 135, (R)-6-(5-chloro-1H-pyrazolo[3,4-b]pyridin-1-yl)-N-(2-fluoro-3-hydroxy-3-methylbutyl)-4-((tetrahydro-2H-pyran-4-yl)amino) nicotinamide] was 0.168 µM; that for `CC(C)(O)[C@H](F)CNC(=O)c1cnc(-n2ncc3cc(Cl)cnc32)cc1NC1CC1` [Example 136, (R)-6-(5-chloro-1H-pyrazolo[3,4-b]pyridin-1-yl)-4-(cyclopropylamino)-N-(2-fluoro-3-hydroxy-3-methylbutyl)nicotinamide] was 0.133 µM. Consider `CC(C)Nc1cc(-n2ncc3cc(Cl)cnc32)ncc1C(=O)NC[C@@H](F)C(C)(C)O` [Example 137, (R)-6-(5-chloro-1H-pyrazolo[3,4-b]pyridin-1-yl)-N-(2-fluoro-3-hydroxy-3-methylbutyl)-4-(isopropylamino)nicotinamide], for which the EC50 under setting [2] turned out to be 0.084 µM. Same read-out and setting: the value for `CC(C)Nc1cc(-n2ncc3cc(O)cnc32)ncc1C(=O)NC[C@@H](F)C(C)(C)O` [Example 153, (R)—N-(2-fluoro-3-hydroxy-3-methylbutyl)-6-(5-hydroxy-1H-pyrazolo[3,4-b]pyridin-1-yl)-4-(isopropylamino)nicotinamide] was 0.16 µM. The same measure, in the same setting: the same measure for `CC(C)Nc1cc(-n2cnc3cncnc32)ncc1C(=O)NC[C@@H](F)C(C)(C)O` [Example 170, (R)—N-(2-Fluoro-3-hydroxy-3-methylbutyl)-4-(isopropylamino)-6-(9H-purin-9-yl) nicotinamide]: 0.423 µM. For the compound `CC(C)Nc1cc(-n2ccc3cc(C#N)cnc32)ncc1C(=O)N[C@H]1CC[C@](O)(c2ccnn2C)CC1` [Example 173, 6-(5-Cyano-1H-pyrrolo[2,3-b]pyridin-1-yl)-N-((1s,4s)-4-hydroxy-4-(1-methyl-1H-pyrazol-5-yl)cyclohexyl)-4-(isopropylamino)nicotinamide], under setting [2], the EC50 was found to be 0.081 µM and the IC50 stood at 0.242 µM. For the compound `CC(C)Nc1cc(-n2ncc3cc(C#N)cnc32)ncc1C(=O)NCC1CCS(=O)(=O)C1` (stereo not drawn) [Example 209], under setting [2], the EC50 worked out at 0.322 µM. Turning to `CC(C)Nc1cc(-n2ncc3cc(C#N)cnc32)ncc1C(=O)N[C@H]1CC[C@H](NC(=O)[C@H](C)O)CC1` [Example 274], under setting [2], the IC50 is 0.204 µM. Still for that read-out and setting: the value for `CC(C)Nc1cc(-n2ncc3cc(Cl)c(N)nc32)ncc1C(=O)NC[C@@H](F)C(C)(C)O` [Example 282] was 0.541 µM. On the same count and under the same terms, the same measure for `CC(C)Nc1cc(-n2ncc3cc(C#N)cnc32)ncc1C(=O)N[C@H]1CC[C@H](NC(=O)[C@@H](C)O)CC1` [Example 287]: 0.489 µM. On the same count and under the same terms, the same measure for `CC(Nc1cc(-n2ncc3cc(C#N)cnc32)ncc1C(=O)NC[C@@H](F)C(C)(C)O)C(F)(F)F` (stereo partly drawn) [Example 297]: 0.219 µM.

As to `CCCNc1cc(-n2ncc3cc(C#N)cnc32)ncc1C(=O)NC[C@@H](F)C(C)(C)O` [Example 337], under setting [2], the EC50 came out at 0.572 µM and the IC50 was 0.765 µM. With `Cn1cc(Nc2cc(-n3ncc4cc(C#N)cnc43)ncc2C(=O)NC[C@@H](F)C(C)(C)O)cn1` [Example 387], the IC50 under setting [2] came out at 0.198 µM. As to `CC(C)Nc1cc(-n2ccc3cc(C#N)ccc32)ncc1C(=O)N[C@H]1CC[C@H](C(C)(C)O)CC1` [Example 414, 6-(5-Cyano-1H-indol-1-yl)-N-((1R,4R)-4-(2-hydroxypropan-2-yl)cyclohexyl)-4-(isopropylamino)nicotinamide], the EC50 under setting [4] came out at 0.188 µM. The same measure, in the same setting: the value for `COC(C)(C)[C@H](F)CNC(=O)c1cnc(-n2ccc3cc(C#N)cnc32)cc1NC(C)C` [Example 434] was 0.057 µM.
